Laboratory results as given in BigSolDB 2.1.

O=P1(Oc2ccccc2)OCC2(CO1)COP(=O)(Oc1ccccc1)OC2 (centres undefined)
Settings	solubility (mole fraction)
in 1,4-dioxane, 293.26 K	0.00132
in 1,4-dioxane, 298.45 K	0.00152
in 1,4-dioxane, 303.26 K	0.00181
in 1,4-dioxane, 308.67 K	0.00214
in 1,4-dioxane, 313.24 K	0.00253
in 1,4-dioxane, 318.36 K	0.00294
in 1,4-dioxane, 323.35 K	0.00335
in 1,4-dioxane, 328.23 K	0.00383
in 1,4-dioxane, 333.36 K	0.00438
in 1,4-dioxane, 338.25 K	0.00499
in 2-butanone, 293.15 K	0.00399
in 2-butanone, 298.16 K	0.00446
in 2-butanone, 303.17 K	0.00506
in 2-butanone, 308.18 K	0.00575
in 2-butanone, 313.16 K	0.00638
in 2-butanone, 318.19 K	0.00733
in 2-butanone, 323.15 K	0.00809
in 2-ethoxyethanol, 293.24 K	0.00325
in 2-ethoxyethanol, 298.24 K	0.00392
in 2-ethoxyethanol, 303.16 K	0.00455
in 2-ethoxyethanol, 308.17 K	0.00543
in 2-ethoxyethanol, 313.23 K	0.00637
in 2-ethoxyethanol, 318.16 K	0.00756
in 2-ethoxyethanol, 323.18 K	0.00897
in 2-ethoxyethanol, 328.15 K	0.0104
in 2-ethoxyethanol, 333.16 K	0.0122
in 2-ethoxyethanol, 338.17 K	0.014
in 2-ethoxyethanol, 343.16 K	0.0161
in 2-ethoxyethanol, 348.17 K	0.0185
in 2-ethoxyethanol, 353.16 K	0.0215
in 2-ethoxyethanol, 358.16 K	0.0244
in 2-ethoxyethanol, 363.17 K	0.0277
in 2-ethoxyethanol, 368.16 K	0.0319
in THF, 293.53 K	0.00524
in THF, 298.16 K	0.00615
in THF, 303.49 K	0.00727
in THF, 308.25 K	0.00845
in THF, 313.35 K	0.00996
in THF, 318.31 K	0.0115
in THF, 323.35 K	0.0133
in THF, 328.46 K	0.0153
in acetone, 293.17 K	0.00237
in acetone, 298.16 K	0.00275
in acetone, 303.26 K	0.00322
in acetone, 308.57 K	0.00371
in acetone, 313.24 K	0.00421
in acetone, 318.07 K	0.00479
in acetone, 323.25 K	0.00542
in acetone, 328.36 K	0.00622
in acetonitrile, 293.31 K	0.00156
in acetonitrile, 298.17 K	0.00187
in acetonitrile, 303.26 K	0.00223
in acetonitrile, 308.57 K	0.00273
in acetonitrile, 313.35 K	0.00318
in acetonitrile, 318.24 K	0.00375
in acetonitrile, 323.36 K	0.00438
in acetonitrile, 328.27 K	0.00522
in acetonitrile, 333.35 K	0.00614
in acetonitrile, 338.56 K	0.00738
in acetonitrile, 343.44 K	0.00841
in benzene, 293.17 K	0.00119
in benzene, 298.16 K	0.00121
in benzene, 304.76 K	0.00124
in benzene, 308.37 K	0.00127
in benzene, 313.55 K	0.00129
in benzene, 318.26 K	0.00133
in benzene, 323.24 K	0.00136
in benzene, 328.43 K	0.00138
in benzene, 333.46 K	0.00141
in benzene, 338.34 K	0.00143
in benzene, 343.26 K	0.00145
in benzene, 348.35 K	0.00147
in chloroform, 293.25 K	0.00224
in chloroform, 298.17 K	0.00319
in chloroform, 303.25 K	0.00436
in chloroform, 308.56 K	0.00611
in chloroform, 313.25 K	0.00806
in chloroform, 318.25 K	0.0106
in chloroform, 323.04 K	0.0139
in chloroform, 328.35 K	0.0188
in chloroform, 333.13 K	0.0234
in dichloromethane, 293.16 K	0.00103
in dichloromethane, 299.22 K	0.00127
in dichloromethane, 303.86 K	0.00146
in dichloromethane, 307.6 K	0.00167
in diethyl ether, 291.95 K	0.00179
in diethyl ether, 295.37 K	0.00204
in diethyl ether, 299.26 K	0.00234
in diethyl ether, 303.55 K	0.00275
in ethanol, 298.16 K	0.00136
in ethanol, 303.15 K	0.00157
in ethanol, 308.16 K	0.00187
in ethanol, 313.14 K	0.00218
in ethanol, 318.16 K	0.00246
in ethanol, 323.16 K	0.00288
in ethanol, 328.17 K	0.00329
in ethanol, 333.16 K	0.00383
in ethanol, 338.16 K	0.00426
in ethanol, 343.15 K	0.00485
in ethyl acetate, 293.25 K	0.00107
in ethyl acetate, 298.46 K	0.00132
in ethyl acetate, 303.27 K	0.00158
in ethyl acetate, 308.66 K	0.00193
in ethyl acetate, 313.27 K	0.0023
in ethyl acetate, 318.35 K	0.00281
in ethyl acetate, 323.35 K	0.00334
in ethyl acetate, 328.26 K	0.00392
in ethyl acetate, 333.37 K	0.00459
in ethyl acetate, 338.26 K	0.00539
in methanol, 293.24 K	0.00271
in methanol, 298.24 K	0.00298
in methanol, 303.16 K	0.00329
in methanol, 308.17 K	0.00365
in methanol, 313.23 K	0.00401
in methanol, 318.16 K	0.00443
in methanol, 323.15 K	0.00483
in pyridine, 293.43 K	0.00813
in pyridine, 298.35 K	0.00885
in pyridine, 303.51 K	0.00964
in pyridine, 308.35 K	0.0104
in pyridine, 313.35 K	0.0114
in pyridine, 318.31 K	0.0123
in pyridine, 323.35 K	0.0132
in pyridine, 328.45 K	0.0141
in toluene, 298.17 K	0.00115
in toluene, 303.25 K	0.00143
in toluene, 308.56 K	0.00185
in toluene, 313.34 K	0.00229
in toluene, 318.26 K	0.00285
in toluene, 323.37 K	0.00352
in toluene, 328.25 K	0.00424
in toluene, 333.34 K	0.00536
in toluene, 338.56 K	0.00646
in toluene, 343.45 K	0.00781
in water, 293.18 K	0.00014
in water, 298.77 K	0.0002
in water, 308.37 K	0.0003
in water, 313.56 K	0.00037
in water, 318.25 K	0.0005
in water, 323.24 K	0.00064
in water, 328.43 K	0.00086
in water, 333.45 K	0.00116
in water, 338.36 K	0.00148
in water, 343.26 K	0.00188
in water, 348.35 K	0.00241
in water, 353.24 K	0.00295
in water, 358.25 K	0.00371
in water, 363.36 K	0.00477
in water, 368.25 K	0.00591

COc1ccc(P(=O)(c2ccc(OC)cc2)c2ccc(OC)cc2)cc1
Settings	solubility (mole fraction)
in 2-butanone, 288.15 K	0.00567
in 2-butanone, 293.16 K	0.00642
in 2-butanone, 298.17 K	0.00725
in 2-butanone, 303.18 K	0.00814
in 2-butanone, 308.14 K	0.00907
in 2-butanone, 313.16 K	0.0102
in 2-butanone, 318.17 K	0.0112
in 2-butanone, 323.16 K	0.0125
in 2-butanone, 328.17 K	0.0139
in 2-butanone, 333.16 K	0.0153
in 2-ethoxyethanol, 293.16 K	0.00573
in 2-ethoxyethanol, 298.17 K	0.00716
in 2-ethoxyethanol, 303.18 K	0.00919
in 2-ethoxyethanol, 308.14 K	0.0114
in 2-ethoxyethanol, 313.16 K	0.0143
in 2-ethoxyethanol, 318.17 K	0.0175
in 2-ethoxyethanol, 323.16 K	0.0223
in 2-ethoxyethanol, 328.17 K	0.0276
in 2-ethoxyethanol, 333.17 K	0.033
in 2-ethoxyethanol, 338.25 K	0.0401
in 2-ethoxyethanol, 343.17 K	0.0482
in benzene, 293.16 K	0.00031
in benzene, 298.17 K	0.00039
in benzene, 303.18 K	0.00048
in benzene, 308.14 K	0.00061
in benzene, 313.16 K	0.00076
in benzene, 318.17 K	0.00094
in benzene, 323.16 K	0.00112
in cyclohexane, 298.15 K	0.00053
in cyclohexane, 304.05 K	0.00082
in cyclohexane, 308.32 K	0.00113
in cyclohexane, 313.95 K	0.00166
in cyclohexane, 318.45 K	0.00229
in cyclohexane, 323.65 K	0.00322
in cyclohexane, 328.45 K	0.00455
in cyclohexane, 332.85 K	0.00589
in cyclohexane, 337.65 K	0.00806
in diethyl ether, 293.16 K	0.00607
in diethyl ether, 296.17 K	0.00739
in diethyl ether, 299.18 K	0.00929
in diethyl ether, 301.16 K	0.0106
in diethyl ether, 303.15 K	0.0118
in ethanol, 298.25 K	0.00037
in ethanol, 303.75 K	0.00049
in ethanol, 308.05 K	0.00067
in ethanol, 313.35 K	0.00102
in ethanol, 317.75 K	0.00128
in ethanol, 322.35 K	0.00168
in ethanol, 328.15 K	0.00236
in methanol, 293.35 K	0.00019
in methanol, 298.25 K	0.00024
in methanol, 303.15 K	0.00031
in methanol, 308.05 K	0.00042
in methanol, 313.15 K	0.00056
in methanol, 318.15 K	0.00071
in methanol, 322.65 K	0.00098
in toluene, 293.16 K	0.00036
in toluene, 298.17 K	0.00045
in toluene, 303.18 K	0.00055
in toluene, 308.14 K	0.00066
in toluene, 313.16 K	0.00083
in toluene, 318.17 K	0.00099
in toluene, 323.16 K	0.00121
in toluene, 328.17 K	0.00143
in toluene, 333.15 K	0.00169
